Test results published in PubChem BioAssay AID1919016 (Molecular Pharmacology Branch, DTP, NCI, 2023).
Where “and” joins values, the source holds several entries; their conditions need not be identical. Identical values can stand only once.

Tested on: NCI-H196 complex spheroid growth, percent test/control
Assay: Anticancer human tumor NCI-H196 cell line growth inhibition [AhR];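 further: seven days of drug exposure starting three days after plating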;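 on viability, T/C: 100% = DMSO vehicle control wells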
Conditions: for viability, T/C: stronger effect = lower value
In short: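 Complex tumor spheroids co-cultured with HUVEC and human MSC stroma; AhR antagonists tested in combination with standard-of-care and investigational agents. Top concentration at or near clinical Cmax (else 10 microM), half-log dilutions; growth expressed as percent test/control.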

[1] = curve of first compound, second compound 0.1 µM
[2] = curve of first compound, second compound 0.316 µM
[3] = curve of first compound, second compound 1 µM
[4] = curve of first compound, second compound 3.16 µM
[5] = curve of first compound, second compound 10 µM
[6] = second compound 0.1 µM, first compound 0.0316 µM
[7] = second compound 0.1 µM, first compound 0.1 µM
[8] = second compound 0.1 µM, first compound 0.316 µM
[9] = second compound 0.1 µM, first compound 1 µM
[10] = second compound 0.1 µM, first compound 3.16 µM
[11] = second compound 0.1 µM, first compound 10 µM
[12] = second compound 0.316 µM, first compound 0.0316 µM
[13] = second compound 0.316 µM, first compound 0.1 µM
[14] = second compound 0.316 µM, first compound 0.316 µM
[15] = second compound 0.316 µM, first compound 1 µM
[16] = second compound 0.316 µM, first compound 3.16 µM
[17] = second compound 0.316 µM, first compound 10 µM
[18] = second compound 1 µM, first compound 0.0316 µM
[19] = second compound 1 µM, first compound 0.1 µM
[20] = second compound 1 µM, first compound 0.316 µM
[21] = second compound 1 µM, first compound 1 µM
[22] = second compound 1 µM, first compound 3.16 µM
[23] = second compound 1 µM, first compound 10 µM
[24] = second compound 3.16 µM, first compound 0.0316 µM
[25] = second compound 3.16 µM, first compound 0.1 µM
[26] = second compound 3.16 µM, first compound 0.316 µM
[27] = second compound 3.16 µM, first compound 1 µM
[28] = second compound 3.16 µM, first compound 3.16 µM
[29] = second compound 3.16 µM, first compound 10 µM
[30] = second compound 10 µM, first compound 0.0316 µM
[31] = second compound 10 µM, first compound 0.1 µM
[32] = second compound 10 µM, first compound 0.316 µM
[33] = second compound 10 µM, first compound 1 µM
[34] = second compound 10 µM, first compound 3.16 µM
[35] = second compound 10 µM, first compound 10 µM

| SMILES | IC50 [1] [nM] | IC50 [2] [nM] | IC50 [3] [nM] | IC50 [4] [nM] | IC50 [5] [nM] | viability, T/C [6] [%] | viability, T/C [7] [%] | viability, T/C [8] [%] | viability, T/C [9] [%] | viability, T/C [10] [%] | viability, T/C [11] [%] | viability, T/C [12] [%] | viability, T/C [13] [%] | viability, T/C [14] [%] | viability, T/C [15] [%] | viability, T/C [16] [%] | viability, T/C [17] [%] | viability, T/C [18] [%] | viability, T/C [19] [%] | viability, T/C [20] [%] | other results |
| --- | --- | --- | --- | --- | --- | --- | --- | --- | --- | --- | --- | --- | --- | --- | --- | --- | --- | --- | --- | --- | --- |
| O=C(C=Cc1cccc(S(=O)(=O)Nc2ccccc2)c1)NO + Cc1ccccc1N=Nc1ccc(NC(=O)c2ccnn2C)c(C)c1 | 1480 | 1760 | 1720 | 1870 | 2030 | 93 | 100 | 87.8 | 62 | 25.5 | 0.66 | 92.7 | 96.5 | 104 | 69.9 | 27.4 | 0.67 | 102 | 94.5 | 90.4 | viability, T/C [21]: 74.2%; viability, T/C [22]: 23.7%; viability, T/C [23]: 3.01%; viability, T/C [24]: 93.6%; viability, T/C [25]: 91.9%; viability, T/C [26]: 91.1%; viability, T/C [27]: 72%; viability, T/C [28]: 31.3%; viability, T/C [29]: 1.68%; viability, T/C [30]: 87.9%; viability, T/C [31]: 90.8%; viability, T/C [32]: 81.6%; viability, T/C [33]: 72.4%; viability, T/C [34]: 36.4%; viability, T/C [35]: 0.98% |
| COc1ccc([C@@H](O)c2cc(-c3ncnc4cc(N5CCOCC5)ccc34)c(F)cc2Cl)nn1 + Cc1ccccc1N=Nc1ccc(NC(=O)c2ccnn2C)c(C)c1 | > 10000 | > 10000 | > 10000 | > 10000 | > 10000 | 97.4 | 92.5 | 96 | 81.8 | 72.8 | 65.4 | 95.3 | 102 | 90 | 78.3 | 68.9 | 68 | 85.7 | 88 | 88.6 | viability, T/C [21]: 89.3%; viability, T/C [22]: 72.6%; viability, T/C [23]: 66.6%; viability, T/C [24]: 97.3%; viability, T/C [25]: 96.8%; viability, T/C [26]: 86.8%; viability, T/C [27]: 77.1%; viability, T/C [28]: 74.6%; viability, T/C [29]: 65.1%; viability, T/C [30]: 88.1%; viability, T/C [31]: 83.8%; viability, T/C [32]: 79.4%; viability, T/C [33]: 73.1%; viability, T/C [34]: 76.5%; viability, T/C [35]: 60.3% |
| CC1COCCN1c1cc(C2(S(C)(=N)=O)CC2)nc(-c2ccnc3[nH]ccc23)n1 (centres undefined) + Cc1cncc(-c2nc(NCCc3c[nH]c4ccccc34)c3ncn(C(C)C)c3n2)c1 | > 10000 | > 10000 | > 10000 | > 10000 | > 10000 | 104 | 103 | 91 | 90.1 | 88.9 | 74.5 | 100 | 101 | 101 | 90.3 | 85.3 | 64.5 | 98.5 | 96 | 99.8 | viability, T/C [21]: 96.9%; viability, T/C [22]: 86.9%; viability, T/C [23]: 73.1%; viability, T/C [24]: 108%; viability, T/C [25]: 103%; viability, T/C [26]: 104%; viability, T/C [27]: 96%; viability, T/C [28]: 98.8%; viability, T/C [29]: 71.9%; viability, T/C [30]: 77.3%; viability, T/C [31]: 96.6%; viability, T/C [32]: 87.6%; viability, T/C [33]: 83.7%; viability, T/C [34]: 79.3%; viability, T/C [35]: 76.4% |
| O=C(C=Cc1cccc(S(=O)(=O)Nc2ccccc2)c1)NO |  |  |  |  |  |  |  |  |  |  |  |  |  |  |  |  |  |  |  |  | viability, T/C (compound 0.0316 µM): 93.5% and 93.7% and 104%; viability, T/C (compound 0.1 µM): 107% and 95.2% and 101%; viability, T/C (compound 0.316 µM): 78.8% and 87.2% and 93.9%; viability, T/C (compound 1 µM): 61.2% and 73.3% and 75.5%; viability, T/C (compound 3.16 µM): 21.6% and 27.8% and 22.7%; viability, T/C (compound 10 µM): 0.64% and 0.72% and 0.55%; IC50 (curve of compound): 1320 nM and 1790 nM and 1730 nM |
| COc1cccc2c1C(=O)c1c(O)c3c(c(O)c1C2=O)CC(O)(C(=O)CO)CC3OC1CC(N)C(O)C(C)O1 (centres undefined) |  |  |  |  |  |  |  |  |  |  |  |  |  |  |  |  |  |  |  |  | viability, T/C (compound 0.0316 µM): 95.5% and 104% and 102%; viability, T/C (compound 0.1 µM): 97.6% and 102% and 108%; viability, T/C (compound 0.316 µM): 82.6% and 76.4% and 99.2%; viability, T/C (compound 1 µM): 42.9% and 44.2% and 59%; viability, T/C (compound 3.16 µM): 0.87% and 1.36% and 2.64%; viability, T/C (compound 10 µM): 1.12% and 5.21% and 1.87%; IC50 (curve of compound): 792 nM and 736 nM and 1200 nM |
| CC(C)c1c(-c2ccccc2)nc2c(C#N)c[nH]n2c1=O + Cc1ccccc1N=Nc1ccc(NC(=O)c2ccnn2C)c(C)c1 | > 10000 | > 10000 | > 10000 | > 10000 | > 10000 | 103 | 104 | 89.5 | 99.1 | 112 | 97.9 | 95.6 | 99.4 | 99.4 | 93.6 | 103 | 88.7 | 97.7 | 96.9 | 101 | viability, T/C [21]: 97%; viability, T/C [22]: 99.3%; viability, T/C [23]: 104%; viability, T/C [24]: 109%; viability, T/C [25]: 100%; viability, T/C [26]: 101%; viability, T/C [27]: 96.3%; viability, T/C [28]: 94.9%; viability, T/C [29]: 104%; viability, T/C [30]: 95%; viability, T/C [31]: 98%; viability, T/C [32]: 96.5%; viability, T/C [33]: 95.7%; viability, T/C [34]: 96.1%; viability, T/C [35]: 95.7% |
